Measurements reported in PubChem BioAssay AID1259411 (Chemical Carcinogenesis Research Information System (CCRIS), 2018).
The source made the active and inactive calls. How the calls were made is not given here.

Test system: rodent carcinogenicity bioassays, tumor incidence
Assay: CCRIS carcinogenicity studies
Method in brief: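 Archive of carcinogenicity, mutagenicity, tumor promotion and tumor inhibition results drawn from journals, NCI reports and other sources, expert-reviewed; covers 1985-2011 and is no longer updated.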

O=C1O[C@H]([C@@H](O)CO)C(O)=C1O
carcinogen call (Species: MOUSE, Strain/Sex: B6C3F1/FEMALE, Route: ORAL, Dose: 0, 25000, 50000 PPM IN DIET FOR 103 WK, Dose: 0, 25000, 50000 PPM IN DIET FOR 103 WK): inactive; negative
carcinogen call (Species: MOUSE, Strain/Sex: B6C3F1/MALE, Route: ORAL, Dose: 0, 25000, 50000 PPM IN DIET FOR 103 WK, Dose: 0, 25000, 50000 PPM IN DIET FOR 103 WK): inactive; negative
carcinogen call (Species: RAT, Strain/Sex: F344/FEMALE, Route: ORAL, Dose: 0, 25000, 50000 PPM IN DIET FOR 103 WK, Dose: 0, 25000, 50000 PPM IN DIET FOR 103 WK): inactive; negative
carcinogen call (Species: RAT, Strain/Sex: F344/MALE, Route: ORAL, Dose: 0, 1, 5, 7% IN DIET OF MALE RATS, PARENTAL GENERATION ALSO FED SODIUM ASCORBATE FOR 4 WK BEFORE MATING THEN CONTINUING I, Dose: 0, 1, 5, 7% IN DIET OF MALE RATS, PARENTAL GENERATION ALSO FED SODIUM ASCORBATE FOR 4 WK BEFORE MATING THEN CONTINUING I): inactive; negative
carcinogen call (Species: RAT, Strain/Sex: F344/MALE, Route: ORAL, Dose: 0, 25000, 50000 PPM IN DIET FOR 103 WK, Dose: 0, 25000, 50000 PPM IN DIET FOR 103 WK): inactive; negative
carcinogen call (Species: Rat, Strain/Sex: F344/Male (9-15/group), Route: Oral, Dose: 0, 1%, 1% with 0.2% sodium nitrite in diet for 32 wk, study duration 32 wk in surgically altered rats to produce chronic, Dose: 0, 1%, 1% with 0.2% sodium nitrite in diet for 32 wk, study duration 32 wk in surgically altered rats to produce chronic, Tumor Site: Type of Lesion: Esophagus examined): inactive; negative (significant increase in hyperplasia observed in combined chemical grou
carcinogen call (Species: Rat, Strain/Sex: Non-tg/Male, Route: Oral, Dose: 5% sodium ascorbate in diet, continuous, for 57 wk until sacrifice, Tumor Site: Type of Lesion: Total tumor-bearing animals (20.0% in experimental animals vs 25.0% in controls), no bladder tumors): inactive; negative. parallel experiment in hras128 rat line was conducted to determine bla

Cc1ccccc1
carcinogen call (Species: MOUSE, Strain/Sex: B6C3F1/FEMALE, Route: INHALATION, Dose: 0, 120, 600, 1200 PPM 6.5 HR/D 5 D/WK FOR 103 WK (STUDY DURATION: 104 WK), Dose: 0, 120, 600, 1200 PPM 6.5 HR/D 5 D/WK FOR 103 WK (STUDY DURATION: 104 WK)): inactive; negative
carcinogen call (Species: MOUSE, Strain/Sex: B6C3F1/MALE, Route: INHALATION, Dose: 0, 120, 600, 1200 PPM 6.5 HR/D 5 D/WK FOR 103 WK (STUDY DURATION: 104 WK), Dose: 0, 120, 600, 1200 PPM 6.5 HR/D 5 D/WK FOR 103 WK (STUDY DURATION: 104 WK)): inactive; negative
carcinogen call (Species: RAT, Strain/Sex: F344/FEMALE, Route: INHALATION, Dose: 0, 600, 1200 PPM 6.5 HR/D 5 D/WK FOR 103 WK (STUDY DURATION: 104 WK), Dose: 0, 600, 1200 PPM 6.5 HR/D 5 D/WK FOR 103 WK (STUDY DURATION: 104 WK)): inactive; negative
carcinogen call (Species: RAT, Strain/Sex: F344/MALE, Route: INHALATION, Dose: 0, 600, 1200 PPM 6.5 HR/D 5 D/WK FOR 103 WK (STUDY DURATION: 104 WK), Dose: 0, 600, 1200 PPM 6.5 HR/D 5 D/WK FOR 103 WK (STUDY DURATION: 104 WK)): inactive; negative
carcinogen call (Species: RAT, Strain/Sex: STRAIN-CD/MALE, Route: INTRAGASTRIC, Dose: 0, 500 MG/KG IN OLIVE OIL 1/D 4-5 D/WK FOR 104 WK (STUDY DURATION: 104 WK)): inactive; negative

Cc1cc(-c2ccc(N)c(C)c2)ccc1N
carcinogen call (Species: MOUSE, Strain/Sex: BALB/FEMALE, Route: ORAL, Dose: 0, 5, 9, 18, 35, 70, 140 PPM IN DRINKING WATER 7 D/WK FOR DURATION OF STUDY (STUDY DURATION: 112 WK), Dose: 0, 5, 9, 18, 35, 70, 140 PPM IN DRINKING WATER 7 D/WK FOR DURATION OF STUDY (STUDY DURATION: 112 WK)): inactive; negative
carcinogen call (Species: MOUSE, Strain/Sex: BALB/MALE, Route: ORAL, Dose: 0, 5, 9, 18, 35, 70, 140 PPM IN DRINKING WATER 7 D/WK FOR DURATION OF STUDY (STUDY DURATION: 112 WK), Dose: 0, 5, 9, 18, 35, 70, 140 PPM IN DRINKING WATER 7 D/WK FOR DURATION OF STUDY (STUDY DURATION: 112 WK), Tumor Site: Type of Lesion: LUNG: ALVEOLAR CELL ADENOMA AND ADENOCARCINOMA): active; positive
carcinogen call (Species: RAT, Route: SUBCUTANEOUS, Tumor Site: Type of Lesion: EAR (ZYMBAL GLAND)): active; positive
carcinogen call (Species: RAT, Strain/Sex: F344/FEMALE, Route: ORAL, Dose: 0, 30, 70, 150 PPM IN DRINKING WATER 7 D/WK FOR 60-61 WK (STUDY DURATION: 60-61 WK), Dose: 0, 30, 70, 150 PPM IN DRINKING WATER 7 D/WK FOR 60-61 WK (STUDY DURATION: 60-61 WK)): active; positive
carcinogen call (Species: RAT, Strain/Sex: F344/MALE, Route: ORAL, Dose: 0, 30, 70, 150 PPM IN DRINKING WATER 7 D/WK FOR 60-61 WK (STUDY DURATION: 60-61 WK), Dose: 0, 30, 70, 150 PPM IN DRINKING WATER 7 D/WK FOR 60-61 WK (STUDY DURATION: 60-61 WK), Tumor Site: Type of Lesion: PREPUTIAL GLAND: ADENOMA, ADENOMA OR CARCINOMA, LARGE INTESTINE: ADENOMATOUS POLYP, ADENOCARCINOMA, SMALL INTESTINE: ADE, Tumor Site: Type of Lesion: PREPUTIAL GLAND: ADENOMA, ADENOMA OR CARCINOMA, LARGE INTESTINE: ADENOMATOUS POLYP, ADENOCARCINOMA, SMALL INTESTINE: ADE): active; positive

O.O=S(=O)([O-])[O-].[Mn+2]
carcinogen call (Species: MOUSE, Strain/Sex: B6C3F1/FEMALE, Route: ORAL, Dose: 0, 1500, 5000, 15000 PPM IN DIET (0; 60; 200; 615 MG/KG/D) FOR 105 WK (STUDY DURATION: 105 WK), Dose: 0, 1500, 5000, 15000 PPM IN DIET (0; 60; 200; 615 MG/KG/D) FOR 105 WK (STUDY DURATION: 105 WK), Tumor Site: Type of Lesion: THYROID GLAND (FOLLICULAR CELL): ADENOMA): equivocal
carcinogen call (Species: MOUSE, Strain/Sex: B6C3F1/MALE, Route: ORAL, Dose: 0, 1500, 5000, 15000 PPM IN DIET (0; 60; 200; 615 MG/KG/D) FOR 105 WK (STUDY DURATION: 105 WK), Dose: 0, 1500, 5000, 15000 PPM IN DIET (0; 60; 200; 615 MG/KG/D) FOR 105 WK (STUDY DURATION: 105 WK), Tumor Site: Type of Lesion: THYROID GLAND (FOLLICULAR CELL): ADENOMA): equivocal
carcinogen call (Species: RAT, Strain/Sex: F344/FEMALE, Route: ORAL, Dose: 0, 1500, 5000, 15000 PPM IN DIET (0; 70; 230; 715 MG/KG/D) FOR 2 YR (STUDY DURATION: 2 YR), Dose: 0, 1500, 5000, 15000 PPM IN DIET (0; 70; 230; 715 MG/KG/D) FOR 2 YR (STUDY DURATION: 2 YR)): inactive; negative
carcinogen call (Species: RAT, Strain/Sex: F344/MALE, Route: ORAL, Dose: 0, 1500, 5000, 15000 PPM IN DIET (0; 60; 200; 615 MG/KG/D) FOR 2 YR (STUDY DURATION: 2 YR), Dose: 0, 1500, 5000, 15000 PPM IN DIET (0; 60; 200; 615 MG/KG/D) FOR 2 YR (STUDY DURATION: 2 YR)): inactive; negative
